From patent US11326165B1, “Methods and compositions for modulating splicing” (SKYHAWK THERAPEUTICS, INC., priority 2017, dated 2022)

How the values were obtained:
A673 cells = assay: Cell viability and proliferation, A673 cells (crystal violet); assay type: cell-based; details: cell proliferation IC50 in NHDF cells over A673 cells, 72 h
Protocol: Small molecule splicing modulators were tested in a dose-response assay using A673 cells and NHDF cells.
A673 cells or NHDF cells were first plated in 96-well plastic tissue culture plates (10,000 cells per well). The cells were treated with vehicle alone (DMSO), or increasing concentrations of SMSM compounds for 72 h. Following treatment, cell proliferation was determined using a crystal violet assay. The relative cell proliferation at each concentration was determined.

A375 xenografts = A375 xenografts in nude mice, tumor growth inhibition; assay type: in vivo
Protocol: (§1) Studies were performed to assess the effects of in vivo SMSM treatment on glioblastoma, breast, pancreatic, prostate, melanoma, lymphoma and Ewing sarcoma tumors. Studies were also performed to assess the effects of in vivo SMSM treatment on mRNA levels. Immunocompromised nude mice with pre-existing glioblastoma, breast, pancreatic, prostate, melanoma, lymphoma and Ewing sarcoma xenografts were treated with vehicle or SMSMs. Tumor tissues from subcutaneous xenografts were broken into a powder using a BioPulverizer (Biospec Products, Inc.). After SMSM treatment, mRNA was isolated from the xenografts and was analyzed by qRT-PCR.
(§2) Tumor size was measured 2 times per week in two dimensions using a caliper. Studies were terminated when the tumor size in the vehicle treated group reached 2,000 mm^3. Each mouse was bled at 2 hrs after the last dose and at least 50 μl of plasma was collected from each mouse. All of the collected plasma samples and retainer dosing solutions for each dose level were used for bioanalytical measurements. All tumors were also collected and weighed. One necrosis-free tumor fragment of approximately 50 mg was taken from each tumor and flash-frozen for RNA isolation. The remaining tumor was flash frozen for PK analysis.
(§3) The effects of in vivo SMSM treatments on pre-existing subcutaneous glioblastoma, breast, pancreatic, prostate, melanoma, lymphoma and Ewing sarcoma xenografts were assessed. For these in vivo experiments, 1×10^6Raji, A375, A673, MDA-MB-231, BxPC-3, PC-3 or U87 (cells re-suspended in 100 μl PBS were subcutaneously injected into the flanks of nude mice. When the tumor reached approximately 100 mm^3 (volume=(¾)(π)(length/2)(width/2)^2), the treatments indicated in the tables below were initiated.

A673 xenografts = A673 xenografts in nude mice, tumor growth inhibition; assay type: in vivo; details: A673 xenograft (FIGS. 16A-C), 1 mg/kg BID
Protocol: Dose range and time course studies comparing anti-neoplastic effects of SMSM−167 and SMSM−151 against vehicle were conducted.
Female NCrNu mice were used. Age range of enrolment was 7-10 weeks. A total of 75 animals were for the studies.
The A673 tumor cell line was maintained in vitro as a monolayer culture. […] The cells growing in an exponential growth phase were harvested and counted for tumor inoculation.
Each mouse were inoculated into a right flank with the single cell suspension of 95% viable tumor cells (5×10^6 cells/mouse) in serum-free RPMI 1640 Media for tumor development. Treatments were administered when mean tumor size reached approximately 75 mm^3.
Before commencement of treatment, all animals were weighed and assigned to treatment groups using a randomization procedure. Mice were randomized into groups based upon their tumor sizes to ensure that each group had approximately the same mean tumor size and range of tumor size.
After inoculation, the animals were checked daily for morbidity and mortality. At the time of routine monitoring, the animals were checked for any effects of tumor growth on normal behavior such as mobility, food and water consumption, body weight gain/loss, eye/hair matting and any other abnormal effects. Deaths and observed clinical signs were recorded.
Body weight were measured prior to tumor inoculation and prior to the treatment administration and then daily. Tumor size were measured 2-3 times per week in two dimensions using a caliper, and the volume were expressed in mm^3 using the formula: V=0.5×a×b^2 where a and b are the long and short diameters of the tumor, respectively.
as §2, with “Studies” for “Tumor size was measured 2 times per week in two dimensions using a caliper. Studies”, “plasma were” for “plasma was”
as §1, §2
as §3, with “initiated. […]” for “initiated.”

SMILES: O=C(/C=C/c1cccc(S(=O)(=O)Nc2ccccc2)c1)NO [Belinostat]
- Ratio NHDF/A673 IC50 (A673 cells): ≤10

SMILES: Nc1ccccc1NC(=O)c1ccc(CNc2nccc(-c3cccnc3)n2)cc1 [Mocetinostat]
- Ratio NHDF/A673 IC50 (A673 cells): ≤10

SMILES: Cc1[nH]c2ccccc2c1CCNCc1ccc(/C=C/C(=O)NO)cc1 [Panobinostat]
- Ratio NHDF/A673 IC50 (A673 cells): ≤10

SMILES: CC(/C=C/C(=O)NO)=C\[C@@H](C)C(=O)c1ccc(N(C)C)cc1 [Trichostatin A]
- Ratio NHDF/A673 IC50 (A673 cells): ≤10

SMILES: CCCS(=O)(=O)Nc1ccc(F)c(C(=O)c2c[nH]c3ncc(-c4ccc(Cl)cc4)cc23)c1F [Vemurafenib, vemurafenib, reference compound]
- Tumor Growth Inhibition (TGI) (%) (A375 xenografts; A375 xenograft (FIGS. 17A-B), 50 mg/kg p.o. BID, D4): 9.47%
- Tumor Growth Inhibition (TGI) (%) (A375 xenografts; A375 xenograft (FIGS. 17A-B), 50 mg/kg p.o. BID, D6): 9.98%
- Tumor Growth Inhibition (TGI) (%) (A375 xenografts; A375 xenograft (FIGS. 17A-B), 50 mg/kg p.o. BID, D10): 24.32%
- Tumor Growth Inhibition (TGI) (%) (A375 xenografts; A375 xenograft (FIGS. 17A-B), 50 mg/kg p.o. BID, D13): 50.53%
- Tumor Growth Inhibition (TGI) (%) (A375 xenografts; A375 xenograft (FIGS. 17A-B), 50 mg/kg p.o. BID, D17): 69.66%
- Tumor Growth Inhibition (TGI) (%) (A375 xenografts; A375 xenograft (FIGS. 17A-B), 50 mg/kg p.o. BID, D21): 82.03%
- Tumor Growth Inhibition (TGI) (%) (A375 xenografts; A-375 xenograft (FIGS. 21A-B), 50 mg/kg p.o. BID *21 days, D4): 111.22%
- Tumor Growth Inhibition (TGI) (%) (A375 xenografts; A-375 xenograft (FIGS. 21A-B), 50 mg/kg p.o. BID *21 days, D7): 112.77%
- Tumor Growth Inhibition (TGI) (%) (A375 xenografts; A-375 xenograft (FIGS. 21A-B), 50 mg/kg p.o. BID *21 days, D11): 114.44%
- Tumor Growth Inhibition (TGI) (%) (A375 xenografts; A-375 xenograft (FIGS. 21A-B), 50 mg/kg p.o. BID *21 days, D14): 109.55%
- Tumor Growth Inhibition (TGI) (%) (A375 xenografts; A-375 xenograft (FIGS. 21A-B), 50 mg/kg p.o. BID *21 days, D18): 107.72%
- Tumor Growth Inhibition (TGI) (%) (A375 xenografts; A-375 xenograft (FIGS. 21A-B), 50 mg/kg p.o. BID *21 days, D21): 106.56%

SMILES: CN(c1ccc(-c2ccc(-c3cn[nH]c3)cc2O)nn1)[C@@H]1C[C@H]2CCC[C@@H](C1)N2 [compound 160, 2-(6-(((1R,3s,5S)-9-azabicyclo[3.3.1]nonan-3-yl)(methyl)amino)pyridazin-3-yl)-5-(1H-pyrazol-4-yl)phenol]
- Ratio NHDF/A673 IC50 (A673 cells): >225
- Tumor Growth Inhibition (TGI) (%) (A673 xenografts; Day 3): −0.94%
- Tumor Growth Inhibition (TGI) (%) (A673 xenografts; Day 6): 25.67%
- Tumor Growth Inhibition (TGI) (%) (A673 xenografts; Day 10): 25.67%
- Tumor Growth Inhibition (TGI) (%) (A673 xenografts; Day 13): 42.90%
- Tumor Growth Inhibition (TGI) (%) (A375 xenografts; A375 xenograft (FIGS. 17A-B), 3 mg/kg ip. BID, D4): 33.09%
- Tumor Growth Inhibition (TGI) (%) (A375 xenografts; A375 xenograft (FIGS. 17A-B), 3 mg/kg ip. BID, D6): 92.99%
- Tumor Growth Inhibition (TGI) (%) (A375 xenografts; A375 xenograft (FIGS. 17A-B), 3 mg/kg ip. BID, D10): 109.59%
- Tumor Growth Inhibition (TGI) (%) (A375 xenografts; A375 xenograft (FIGS. 17A-B), 3 mg/kg ip. BID, D13): 105.98%
- Tumor Growth Inhibition (TGI) (%) (A375 xenografts; A375 xenograft (FIGS. 17A-B), 3 mg/kg ip. BID, D17): 99.59%
- Tumor Growth Inhibition (TGI) (%) (A375 xenografts; A375 xenograft (FIGS. 17A-B), 3 mg/kg ip. BID, D21): 94.68%
- Tumor Growth Inhibition (TGI) (%) (A375 xenografts; A375 xenograft (FIGS. 17A-B), 3 mg/kg ip. QD, D4): 3.40%
- Tumor Growth Inhibition (TGI) (%) (A375 xenografts; A375 xenograft (FIGS. 17A-B), 3 mg/kg ip. QD, D6): 47.56%
- Tumor Growth Inhibition (TGI) (%) (A375 xenografts; A375 xenograft (FIGS. 17A-B), 3 mg/kg ip. QD, D10): 44.13%
- Tumor Growth Inhibition (TGI) (%) (A375 xenografts; A375 xenograft (FIGS. 17A-B), 3 mg/kg ip. QD, D13): 40.08%
- Tumor Growth Inhibition (TGI) (%) (A375 xenografts; A375 xenograft (FIGS. 17A-B), 3 mg/kg ip. QD, D17): 45.12%
- Tumor Growth Inhibition (TGI) (%) (A375 xenografts; A375 xenograft (FIGS. 17A-B), 3 mg/kg ip. QD, D21): 53.98%
- Tumor Growth Inhibition (TGI) (%) (A375 xenografts; A375 xenograft (FIGS. 17A-B), 10 mg/kg ip. QD*5day, D4): 72.84%
- Tumor Growth Inhibition (TGI) (%) (A375 xenografts; A375 xenograft (FIGS. 17A-B), 10 mg/kg ip. QD*5day, D6): 118.42%
- Tumor Growth Inhibition (TGI) (%) (A375 xenografts; A375 xenograft (FIGS. 17A-B), 10 mg/kg ip. QD*5day, D10): 112.78%
- Tumor Growth Inhibition (TGI) (%) (A375 xenografts; A375 xenograft (FIGS. 17A-B), 10 mg/kg ip. QD*5day, D13): 103.12%
- Tumor Growth Inhibition (TGI) (%) (A375 xenografts; A375 xenograft (FIGS. 17A-B), 10 mg/kg ip. QD*5day, D17): 97.84%
- Tumor Growth Inhibition (TGI) (%) (A375 xenografts; A375 xenograft (FIGS. 17A-B), 10 mg/kg ip. QD*5day, D21): 95.59%
- Tumor Growth Inhibition (TGI) (%) (A375 xenografts; A-375 xenograft (FIGS. 21A-B), 1.5 mg/kg i.p. BID *21 days, D4): 3.60%
- Tumor Growth Inhibition (TGI) (%) (A375 xenografts; A-375 xenograft (FIGS. 21A-B), 1.5 mg/kg i.p. BID *21 days, D7): 18.11%
- Tumor Growth Inhibition (TGI) (%) (A375 xenografts; A-375 xenograft (FIGS. 21A-B), 1.5 mg/kg i.p. BID *21 days, D11): 30.05%
- Tumor Growth Inhibition (TGI) (%) (A375 xenografts; A-375 xenograft (FIGS. 21A-B), 1.5 mg/kg i.p. BID *21 days, D14): 30.28%
- Tumor Growth Inhibition (TGI) (%) (A375 xenografts; A-375 xenograft (FIGS. 21A-B), 1.5 mg/kg i.p. BID *21 days, D18): 42.80%
- Tumor Growth Inhibition (TGI) (%) (A375 xenografts; A-375 xenograft (FIGS. 21A-B), 1.5 mg/kg i.p. BID *21 days, D21): 37.88%
- Tumor Growth Inhibition (TGI) (%) (A375 xenografts; A-375 xenograft (FIGS. 21A-B), 3 mg/kg i.p. BID *21 days, D4): 38.68%
- Tumor Growth Inhibition (TGI) (%) (A375 xenografts; A-375 xenograft (FIGS. 21A-B), 3 mg/kg i.p. BID *21 days, D7): 46.64%
- Tumor Growth Inhibition (TGI) (%) (A375 xenografts; A-375 xenograft (FIGS. 21A-B), 3 mg/kg i.p. BID *21 days, D11): 94.46%
- Tumor Growth Inhibition (TGI) (%) (A375 xenografts; A-375 xenograft (FIGS. 21A-B), 3 mg/kg i.p. BID *21 days, D14): 89.78%
- Tumor Growth Inhibition (TGI) (%) (A375 xenografts; A-375 xenograft (FIGS. 21A-B), 3 mg/kg i.p. BID *21 days, D18): 81.80%
- Tumor Growth Inhibition (TGI) (%) (A375 xenografts; A-375 xenograft (FIGS. 21A-B), 3 mg/kg i.p. BID *21 days, D21): 71.33%

SMILES: CN(c1ccc(-c2ccc(-c3ccn(C)c(=O)c3)cc2O)nn1)[C@H]1C[C@]2(C)CC[C@](C)(C1)N2 [compound 168, 4-(4-(6-(((1R,3s,5S)-1,5-dimethyl-8-azabicyclo[3.2.1]octan-3-yl)(methyl)amino)pyridazin-3-yl)-3-hydroxyphenyl)-1-methylpyridin-2(1H)-one]
- Ratio NHDF/A673 IC50 (A673 cells): >500
